The values that follow come from patent US4151291A, “Ethers of 7-hydroxy-coumarin useful as medicaments” (Unicler, priority 1976, dated 1979).

Data set [1] is described as follows: oral LD50. As to conditions: in vivo. The method, then: In addition the oral LD50 was determined for the compounds of the invention.
The subject of data set [2] is pain syndrome provoked in mice by injection of phenylbenzoquinone. Briefly: analgesia test of Siegmund, Cadmus and Lu (phenylbenzoquinone-induced pain syndrome). Format: in vivo, mice of Swiss strain. As to conditions: oral, 30 minutes before phenylbenzoquinone, extensions counted over 10 minutes vs control. The method, then:
They have in particular been submitted to the test of analgesia of Siegmund, Cadmus and Lu (Proc. Soc. Exp. Biol. Med. 95, 729, 1957) according to which a characteristic pain syndrome is provoked in mice by injection of phenylbenzoquinone.
The animals used are mice of Swiss strain weighing 20±2 grams.
The animals are separated into groups of 10, randomly but are individually submitted to experiments. Each experiment is carried out on at least two groups:
a control group receiving solvent and phenylbenzoquinone
a group treated with test compound.
The test compounds are administered orally, 30 minutes before the injection of the irritant. Each mouse then receives intraperitoneally 0.25 ml of a 0.02% phenylbenzoquinone solution.
The pain syndrome generated by the injection of phenylbenzoquinone consists of extension of the abdomen and the back legs; at the height of the reaction, the flanks of the animal are very contracted. 5 Minutes after the injection of the irritant, the extensions are counted over a period of 10 minutes.
For each group, the mean number of extensions is calculated. The activity (A) of the test compound is determined by comparison between the mean number of extensions in the treated animals (N) and the mean number of extensions in the control animals (N') according to the equation [formula]
The statistical significance of the result thus obtained is evaluated by the non-parametric test of Fisher.

For the compound `C#CCOc1ccc2c(C)cc(=O)oc2c1` [JB 2, 4-Methyl-7-propargyloxy-coumarin], in data set [1], the LD50 was 1500 mg/kg. Moreover, the “Analgesic Activity A” value in data set [2] (dose 150 mg/kg) amounted to 98%.
In data set [1], `Cc1cc(=O)oc2cc(OCC#CCN3CCOCC3)ccc12` [JB 12, 4-Methyl-7-(4-morpholino-but-2-ynyloxy)-coumarin] showed an LD50 of 1500 mg/kg. The “Analgesic Activity A” value in data set [2] (dose 150 mg/kg) worked out at 88%.
Taken in the same sequence, the figures for `C#CCOc1ccc2c(C)c(CC=C)c(=O)oc2c1` [JB 19, 3-Allyl-4-methyl-7-propargyloxy-coumarin] were 1500 mg/kg and 81%.
`C#CCOc1ccc2c(-c3ccccc3[N+](=O)[O-])cc(=O)oc2c1` [JB 5, 4-o-nitrophenyl-7-propargyloxy-coumarin] yielded a 50% lethal dose (LD50) in data set [1] of over 2000 mg/kg. The “Analgesic Activity A” value in data set [2] (dose 200 mg/kg) is 40%.
As to `Cc1cc(=O)oc2cc(OCC#CCN(C)C)ccc12` [JB 16, 4-Methyl-7-(4-dimethylamino-but-2-ynyloxy)-coumarin], in data set [1], the median lethal dose (LD50) came to 500 mg/kg. Moreover, in data set [2] (dose 50 mg/kg), the “Analgesic Activity A” value stood at 30%.
In data set [1], `C#CCOc1ccc2c(C)c(CC)c(=O)oc2c1` [JB 4, 3-Ethyl-4-methyl-7-propargyloxy-coumarin] yielded a median lethal dose (LD50) of 1000 mg/kg. Moreover, the “Analgesic Activity A” value in data set [2] (dose 100 mg/kg) came to 65%.
Take `C#CCOc1ccc2ccc(=O)oc2c1` [JB 1, 7-Propargyloxy-coumarin]: the 50% lethal dose (LD50) in data set [1] was 1500 mg/kg. For the same compound, in data set [2] (dose 150 mg/kg), the “Analgesic Activity A” value is reported as 55%.
